PMC10022191, “Safety, tolerability, pharmacokinetics, and antiviral activity of the novel core protein allosteric modulator ZM-H1505R (Canocapavir) in chronic hepatitis B patients: a randomized multiple-dose escalation trial” (BMC Medicine, 2023)
Entries after “also recorded” stand apart in the source; their conditions may differ.

Assay: phase 1b trial: adverse reactions and tolerability in CHB patients
Format: in vivo, human
Method: This was a randomized, open-label, placebo-controlled, phase 1b study (Clinical Trial Registration Number: NCT05470829; Chinese Clinical Trial Registration Number: CTR20210686), which was conducted at the Phase I Clinical Research Center, The First Hospital of Jilin University (Jilin, China), during the period from May to November of 2021. In order to minimize the safety risk of Canocapavir, an adaptive ascending dosing strategy was adopted for Canocapavir treatment in this study. The second and third assigned doses were initiated only after the safety data from the previous dose was reviewed and determined to be safe by the Principal Investigator and the Sponsor on day 8 postdosing (post drug administration days). Canocapavir was administered at the Clinical Research Center on days 1–8 and day 28 and at home on days 9–27 under the same conditions (fixed administration time and fasting condition). Patients were required to visit the facility for follow-up on days 15, 22, 27, 43 ± 1, and 57 ± 2 postdosing. The study protocol and informed consent forms were prepared according to the principles of the Declaration of Helsinki. The study protocol was approved by the Institutional Review Board of the First Hospital of Jilin University (approval number: 20Y201-006). All recruited patients provided written informed consent before participating in any study-related procedures.
A total of 30 CHB patients were recruited in this study and were randomly assigned into three cohorts (N = 10, each). In these three cohorts, the patients (in a ratio of 4:1) received 50, 100, or 200 mg of Canocapavir or placebo once a day for 28 consecutive days under fasting conditions, followed by a 28-day follow-up (Fig. 1). The patients, care providers, and those assessing outcomes were blinded during the study. This random process was completed in an electronic data capture system, and the details are shown in Additional file 1.
To examine possible adverse events (AEs) and adverse reactions (an adverse event is definitely, probably, or possibly related to the drug) in this study, the recruited patients underwent regular clinical laboratory testing, 12-lead electrocardiograms, examination of vital signs, abdominal ultrasound, and regular physical examinations, using the baseline data as a control. The severity of AEs and laboratory abnormalities were graded according to the Common Terminology Criteria for Adverse Events (CTCAE), version 5.0, which defines toxicity criteria. The AEs were coded using the Medical Dictionary for Regulatory Activities, version 24.1 (McLean, VA, USA).

## O=C1CO[C@H](c2cn(-c3ccc(Br)cc3)nc2-c2ccc(F)cc2)N1CCc1ccc2[nH]c(=O)[nH]c2c1 [Canocapavir]
50 mg q.d., 28 days
  Adverse reactions, grade I, number of subjects: 2 n
  Adverse reactions, grade I, percent of subjects: 25.00%
  Adverse reactions, grade II, number of subjects: 0 n
  Adverse reactions, grade II, percent of subjects: 0%
  Adverse reactions, grade III, number of subjects: 1 n
  Adverse reactions, grade III, percent of subjects: 12.50%
  Adverse reactions, total (all grades), number of subjects: 3 n
  Adverse reactions, total (all grades), percent of subjects: 37.5%
  Decreased neutrophil count, cases: 1 case
  Decreased neutrophil count, grade II, number of subjects: 0 n
  Decreased neutrophil count, grade II, percent of subjects: 0%
  Decreased neutrophil count, grade III, percent of subjects: 12.50%
  Decreased neutrophil count, number of subjects (%): 1 (12.5) n (%)
  Decreased platelet count, cases: 0 case
  Decreased platelet count, grade I, number of subjects: 0 n
  Decreased platelet count, grade I, percent of subjects: 0%
  Decreased platelet count, number of subjects (%): 0 (0) n (%)
  Decreased serum phosphorus, cases: 0 case
  Decreased serum phosphorus, grade I, number of subjects: 0 n
  Decreased serum phosphorus, grade I, percent of subjects: 0%
  Decreased serum phosphorus, number of subjects (%): 0 (0) n (%)
  Decreased white blood cell count, cases: 1 case
  Decreased white blood cell count, grade II, percent of subjects: 12.50%
  Decreased white blood cell count, number of subjects (%): 1 (12.5) n (%)
  Hypertriglyceridemia, cases: 0 case
  Hypertriglyceridemia, grade III, number of subjects: 0 n
  Hypertriglyceridemia, grade III, percent of subjects: 0%
  Hypertriglyceridemia, number of subjects (%): 0 (0) n (%)
  Increased alanine aminotransferase, cases: 2 case
  Increased alanine aminotransferase, grade I, number of subjects: 2 n
  Increased alanine aminotransferase, grade I, percent of subjects: 25.00%
  Increased alanine aminotransferase, grade II, number of subjects: 0 n
  Increased alanine aminotransferase, grade II, percent of subjects: 0%
  Increased alanine aminotransferase, number of subjects (%): 2 (25) n (%)
  Increased aspartate aminotransferase, cases: 1 case
  Increased aspartate aminotransferase, grade I, number of subjects: 1 n
  Increased aspartate aminotransferase, grade I, percent of subjects: 12.50%
  Increased aspartate aminotransferase, grade II, number of subjects: 0 n
  Increased aspartate aminotransferase, grade II, percent of subjects: 0%
  Increased aspartate aminotransferase, number of subjects (%): 1 (12.5) n (%)
  Increased bilirubin, cases: 0 case
  Increased bilirubin, grade I, number of subjects: 0 n
  Increased bilirubin, grade I, percent of subjects: 0%
  Increased bilirubin, number of subjects (%): 0 (0) n (%)
  Increased creatinine, cases: 1 case
  Increased creatinine, grade I, number of subjects: 1 n
  Increased creatinine, grade I, percent of subjects: 12.50%
  Increased creatinine, number of subjects (%): 1 (12.5) n (%)
  Increased γ-glutamyltransferase, cases: 0 case
  Increased γ-glutamyltransferase, grade I, number of subjects: 0 n
  Increased γ-glutamyltransferase, grade I, percent of subjects: 0%
  Increased γ-glutamyltransferase, number of subjects (%): 0 (0) n (%)
  Rash, cases: 0 case
  Rash, grade I, number of subjects: 0 n
  Rash, grade I, percent of subjects: 0%
  Rash, number of subjects (%): 0 (0) n (%)
  Total adverse reactions, cases: 6 case
  Total adverse reactions, number of subjects (%): 3 (37.5) n (%)
100 mg q.d., 28 days
  Adverse reactions, grade I, number of subjects: 4 n
  Adverse reactions, grade I, percent of subjects: 50.00%
  Adverse reactions, grade II, number of subjects: 1 n
  Adverse reactions, grade II, percent of subjects: 12.50%
  Adverse reactions, grade III, number of subjects: 0 n
  Adverse reactions, grade III, percent of subjects: 0%
  Adverse reactions, total (all grades), number of subjects: 5 n
  Adverse reactions, total (all grades), percent of subjects: 62.5%
  Decreased neutrophil count, cases: 1 case
  Decreased neutrophil count, grade II, percent of subjects: 12.50%
  Decreased neutrophil count, grade III, number of subjects: 0 n
  Decreased neutrophil count, grade III, percent of subjects: 0%
  Decreased neutrophil count, number of subjects (%): 1 (12.5) n (%)
  Decreased platelet count, cases: 1 case
  Decreased platelet count, grade I, number of subjects: 1 n
  Decreased platelet count, grade I, percent of subjects: 12.50%
  Decreased platelet count, number of subjects (%): 1 (12.5) n (%)
  Decreased serum phosphorus, cases: 0 case
  Decreased serum phosphorus, grade I, number of subjects: 0 n
  Decreased serum phosphorus, grade I, percent of subjects: 0%
  Decreased serum phosphorus, number of subjects (%): 0 (0) n (%)
  Decreased white blood cell count, cases: 1 case
  Decreased white blood cell count, grade II, percent of subjects: 12.50%
  Decreased white blood cell count, number of subjects (%): 1 (12.5) n (%)
  Hypertriglyceridemia, cases: 0 case
  Hypertriglyceridemia, grade III, number of subjects: 0 n
  Hypertriglyceridemia, grade III, percent of subjects: 0%
  Hypertriglyceridemia, number of subjects (%): 0 (0) n (%)
  Increased alanine aminotransferase, cases: 3 case
  Increased alanine aminotransferase, grade I, number of subjects: 3 n
  Increased alanine aminotransferase, grade I, percent of subjects: 37.50%
  Increased alanine aminotransferase, grade II, number of subjects: 0 n
  Increased alanine aminotransferase, grade II, percent of subjects: 0%
  Increased alanine aminotransferase, number of subjects (%): 3 (37.5) n (%)
  Increased aspartate aminotransferase, cases: 2 case
  Increased aspartate aminotransferase, grade I, number of subjects: 2 n
  Increased aspartate aminotransferase, grade I, percent of subjects: 25.00%
  Increased aspartate aminotransferase, grade II, number of subjects: 0 n
  Increased aspartate aminotransferase, grade II, percent of subjects: 0%
  Increased aspartate aminotransferase, number of subjects (%): 2 (25) n (%)
  Increased bilirubin, cases: 0 case
  Increased bilirubin, grade I, number of subjects: 0 n
  Increased bilirubin, grade I, percent of subjects: 0%
  Increased bilirubin, number of subjects (%): 0 (0) n (%)
  Increased creatinine, cases: 0 case
  Increased creatinine, grade I, number of subjects: 0 n
  Increased creatinine, grade I, percent of subjects: 0%
  Increased creatinine, number of subjects (%): 0 (0) n (%)
  Increased γ-glutamyltransferase, cases: 1 case
  Increased γ-glutamyltransferase, grade I, number of subjects: 1 n
  Increased γ-glutamyltransferase, grade I, percent of subjects: 12.50%
  Increased γ-glutamyltransferase, number of subjects (%): 1 (12.5) n (%)
  Rash, cases: 1 case
  Rash, grade I, number of subjects: 1 n
  Rash, grade I, percent of subjects: 12.50%
  Rash, number of subjects (%): 1 (12.5) n (%)
  Total adverse reactions, cases: 10 case
  Total adverse reactions, number of subjects (%): 5 (62.5) n (%)
100 mg q.d., day 15, baseline 144.9 U/L
  maximum ALT level, patient E3010: 385.4 U/L
200 mg q.d., 28 days
  Adverse reactions, grade I, number of subjects: 3 n
  Adverse reactions, grade I, percent of subjects: 37.50%
  Adverse reactions, grade II, number of subjects: 0 n
  Adverse reactions, grade II, percent of subjects: 0%
  Adverse reactions, grade III, number of subjects: 1 n
  Adverse reactions, grade III, percent of subjects: 12.50%
  Adverse reactions, total (all grades), number of subjects: 4 n
  Adverse reactions, total (all grades), percent of subjects: 50.0%
  Decreased neutrophil count, cases: 0 case
  Decreased neutrophil count, grade II, number of subjects: 0 n
  Decreased neutrophil count, grade II, percent of subjects: 0%
  Decreased neutrophil count, grade III, number of subjects: 0 n
  Decreased neutrophil count, grade III, percent of subjects: 0%
  Decreased neutrophil count, number of subjects (%): 0 (0) n (%)
  Decreased platelet count, cases: 0 case
  Decreased platelet count, grade I, number of subjects: 0 n
  Decreased platelet count, grade I, percent of subjects: 0%
  Decreased platelet count, number of subjects (%): 0 (0) n (%)
  Decreased serum phosphorus, cases: 1 case
  Decreased serum phosphorus, grade I, number of subjects: 1 n
  Decreased serum phosphorus, grade I, percent of subjects: 12.50%
  Decreased serum phosphorus, number of subjects (%): 1 (12.5) n (%)
  Decreased white blood cell count, cases: 0 case
  Decreased white blood cell count, grade II, number of subjects: 0 n
  Decreased white blood cell count, grade II, percent of subjects: 0%
  Decreased white blood cell count, number of subjects (%): 0 (0) n (%)
  Hypertriglyceridemia, cases: 2 case
  Hypertriglyceridemia, grade III, percent of subjects: 12.50%
  Hypertriglyceridemia, number of subjects (%): 1 (12.5) n (%)
  Increased alanine aminotransferase, cases: 3 case
  Increased alanine aminotransferase, grade I, number of subjects: 3 n
  Increased alanine aminotransferase, grade I, percent of subjects: 37.50%
  Increased alanine aminotransferase, grade II, number of subjects: 0 n
  Increased alanine aminotransferase, grade II, percent of subjects: 0%
  Increased alanine aminotransferase, number of subjects (%): 3 (37.5) n (%)
  Increased aspartate aminotransferase, cases: 1 case
  Increased aspartate aminotransferase, grade I, number of subjects: 1 n
  Increased aspartate aminotransferase, grade I, percent of subjects: 12.50%
  Increased aspartate aminotransferase, grade II, number of subjects: 0 n
  Increased aspartate aminotransferase, grade II, percent of subjects: 0%
  Increased aspartate aminotransferase, number of subjects (%): 1 (12.5) n (%)
  Increased bilirubin, cases: 1 case
  Increased bilirubin, grade I, number of subjects: 1 n
  Increased bilirubin, grade I, percent of subjects: 12.50%
  Increased bilirubin, number of subjects (%): 1 (12.5) n (%)
  Increased creatinine, cases: 0 case
  Increased creatinine, grade I, number of subjects: 0 n
  Increased creatinine, grade I, percent of subjects: 0%
  Increased creatinine, number of subjects (%): 0 (0) n (%)
  Increased γ-glutamyltransferase, cases: 0 case
  Increased γ-glutamyltransferase, grade I, number of subjects: 0 n
  Increased γ-glutamyltransferase, grade I, percent of subjects: 0%
  Increased γ-glutamyltransferase, number of subjects (%): 0 (0) n (%)
  Rash, cases: 0 case
  Rash, grade I, number of subjects: 0 n
  Rash, grade I, percent of subjects: 0%
  Rash, number of subjects (%): 0 (0) n (%)
  Total adverse reactions, cases: 8 case
  Total adverse reactions, number of subjects (%): 4 (50) n (%)
50–200 mg q.d.
  relation of incidence of adverse reactions to dose: not significantly correlated to its increased dose
50–200 mg q.d., 28 days
  safety and tolerability: well tolerated; also recorded: safe and tolerated
  serious adverse events: no serious adverse events; also recorded: No serious AE
  withdrawal from the study: no patients withdrew
Across dose cohorts
  patients with a grade I adverse reaction (elevation of ALT or AST): 12.5–37.5%
All doses, 24 patients
  cases of AEs in the Canocapavir cohort: 38 cases
  cases of adverse reactions in the Canocapavir cohort: 24 cases
  patients with AEs in the Canocapavir cohort: 75%
  patients with adverse reactions in the Canocapavir cohort: 50%
